Test results taken from patent US11179449B2, “Immunogenic preprocalcitonin peptides” (Institut Gustave Roussy, priority 2015, dated 2021).

Experiments:
[1] = test system: PBMC of patients with non-small cell lung cancer (NSCLC); assay: In vitro stimulation of PBMC of NSCLC patients with 9- or 10-aa ppCT peptides, CD8+/IFNγ+ cells by flow cytometry; type: cell-based, human
Method: The peripheral blood mononuclear cells (PBMC) of 11 patients with non-small cell lung cancer (NSCLC) were isolated from the peripheral blood by Ficoll. For each peptide, the PBMC were stimulated twice (D0 and D7) with 20 μM of peptide. The PBMC were cultivated for 2 weeks on 96-well plates, at a rate of 20 million cells/plate, on complete medium (RPMI 1640, 10% SAB, 1% sodium pyruvate, 0.1% penicillin/[…]) in the presence of IL-2 (20 IU/ml)+IL-4 (10 ng/ml)+IL-7 (10 ng/ml).
After 15 days, the PBMC are again stimulated with 2.5 μM of the peptide used during the first stimulation step, in the presence of 100 μg/ml of Brefeldin A, and incubated for 6 hours at 37° C., 5% CO2. The cells are then incubated for 20 minutes with an anti-CD8-APC antibody, then washed in PBS, fixed with PBS-formaldehyde 2% and permeabilised by BSA/saponin. They are then incubated with an anti-IFN-γ-PE antibody. The analysis is carried out by flow cytometry. The statistical study is performed using the Mann-Whitney test and the statistically significant increases are indicated (*p<0.05; **p<0.01; ***p<0.005).

[2] = test system: CD8 T lymphocytes expressing IFNγ (splenocytes); assay: Immunisation of HLA-A2 transgenic mice with peptide combinations, CD8+/IFNγ+ splenocytes by flow cytometry after ex vivo restimulation; type: in vivo, transgenic mice for the HLA-A2 molecules; details: splenocytes of immunised mice
Method: The transgenic mice for the HLA-A2 molecules were immunised 4 times (D0, D7, D14 and D21), under the skin on the flank, with 100 μl of peptide combinations containing an equimolar mixture of 100 μM of each of the peptides and an adjuvant (25 μg of Poly (I:C)) (FIG. 4). At 28 days after the first injection, the mice were sacrificed and the splenocytes were recovered and cultivated overnight in complete medium (RPMI 1640, 10% FBS, 1% sodium pyruvate, 0.1% penicillin/[…]) in the presence of IL-2 (20 IU/ml).
The next day, the splenocytes were stimulated with 2.5 μM of each of the peptides, alone or in combination, in the presence of 10 μg/ml of Brefeldin A and incubated for 6 hours at 37° C., 5% CO2. The cells are then incubated for 20 minutes with an anti-CD8-PE antibody, then washed in PBS, fixed with PBS-formaldehyde 2% and permeabilised with BSA/saponin. They are then incubated with an anti-IFNγ-APC antibody. The analysis is carried out by flow cytometry.

[3] = patients 4, 5 and 7 (respond only to these peptides)

| Sequence | lymphocyte response after stimulation [1, 3] | lymphocyte response after stimulation ([1]; patient 3) | CD8 T lymphocyte response induced by the peptide alone on ex vivo stimulation [2] |
| --- | --- | --- | --- |
| FLALSILVL (synthetic peptide ppCT9-17) | trigger a lymphocyte response | – | – |
| CMLGTYTQDF (synthetic peptide ppCT91-100) | – | triggers a response | – |
| LLAALVQDYV (synthetic peptide ppCT50-59) | trigger a lymphocyte response | triggers a response | strong response |
